Where “and” joins values, the source holds several entries; their conditions need not be identical. Equal entries are not always repeated.

In one data set the test system is male mouse. The settings on record: peroral; cited from earlier work.
In data set [1] the test system is kainate-induced cortical focal seizures. Description: Kainate-induced cortical focal seizures: behavior and electroencephalogram. For Decrease of Spikes: key: (+): effective; (−): ineffective. For Sedative action: key: (+): effective; (−): ineffective. For Spikes after 24 hours: key: (+): effective; (−): ineffective. It is filed as in vivo, rat. The settings on record: 100 mg/kg i.v. Here is the method:
[Method for measuring an electrophysiological effect] A stereotaxic operation was performed through the same manner as described in I-1 by use of Wistar male rats. A cannula was inserted in the left sensorimotor area for injection of kainic acid, and the cannula was simultaneously used as an electrode. A bipolar depth electrode was set in the bilateral caudatum, and screw electrodes were set in the right sensorimotor area, frontal sinus, and occipital bone. Seven days after operation, 1 μL of kainic acid solution (2 mg/mL) was injected so as to induce cortical focal seizures. After elapse of 1-2 hours from the injection of kainic acid, the same nefiracetam solution as described in I-1 (100 mg/kg) was intravenously injected, and behavior and electroencephalograms were recorded by use of a video electroencephalogram recorder. Suppression of seizures just after the administration of nefiracetam, changes in electroencephalograms, occurrence of seizures thereafter, and electroencephalogram observations were compared with those of the control group.

On to `Cc1cccc(C)c1NC(=O)CN1CCCC1=O` [nefiracetam, N-(2,6-dimethylphenyl)-2-(2-oxo-1-pyrrolidinyl)acetamide], for which, in the data set on male mouse, the acute toxicity is 2,005 mg/kg. Besides, in data set [1], the Seizures after awakening result is recorded as “seizures did not appear after awakening”, the “Seizures after intravenous injection during status epilepticus” value is recorded as “the seizures disappeared immediately” and the “Time to awakening from sedation” value was not above 60 min. For the same compound, in data set [1] (individual rats), the “Decrease of Spikes” value is “+”, the Disappear of seizures result is given as “+”, the Reappear of seizures entry was “−” and the Sedative action entry is reported as “+”. For the same compound, the “Spikes after 24 hours” value in data set [1] (individual rats) is “− and + (2×)”.

The values above are taken from US6365621B1, “Remedies or preventives for intractable epilepsy” (Pharmaceutical Co., Ltd., priority 1998, dated 2002).
